In PubChem BioAssay AID1963851 (Molecular Pharmacology Branch, DTP, NCI, 2024):
“And” between values parts separate entries of the source, which are not always exact repeats. Identical values can stand only once. Values belong to the molecule of their own block, whether it stands above or below them.

Test system: 188146-221-R-J1-PDC complex spheroid viability
Experiment: Anticancer human tumor 188146-221-R-J1-PDC patient-derived colon adenocarcinoma cell line growth inhibition [POLQ]
Conditions: for viability, T/C: stronger effect = lower value
Procedure: Multicellular complex tumor spheroid response to Polymerase (POL) inhibitors (novobiocin, ART-558, RP6685) in combination with a variety of drugs and investigational agents in selected tumor cell lines
The POL inhibitors (novobiocin, ART-558, and RP6685) were evaluated both individually and in combination with standard of care and investigational anticancer small molecules within a complex spheroid model of solid tumors. . Complex spheroids include a stromal component modeled by human endothelial cells (HUVEC) and fibroblasts modeled by human mesenchymal stem cells (MSCs). The concentration ranges selected for each drug and investigational agent were based upon clinically achievable concentrations if the clinical Cmax of the agent was known.
Compounds. The drugs and investigational agents: novobiocin (NSC847541), ART-558 (NSC835418), RP-6685 (NSC848927), peposertib (NSC802822), ceralasertib (NSC780249), elimusertib (NSC800525), camonsertib (NSC841442), AZD-1390 (NSC803789), olaparib (NSC753686), talazoparib (NSC767125), rucaparib (NSC756644), sotorasib (NSC818433), MRTX-1133 (NSC836407), SN-38 (NSC673596), topotecan (NSC609699), epotoside (NSC141540), doxorubicin (NSC123127), gemcitabine (NSC613327), 5-fluorouracil (NSC19893), paclitaxel (NSC125973), vemurafenib (NSC761431), MSA-2 (NSC828583), SN-011 (NSC837082), adavosertib (NSC754352), prexasertib (NSC758257), carboplatin (NSC241240) and oxaliplatin (NSC266046), were obtained from the National Cancer Institute (NCI) Developmental Therapeutics Program Chemical Repository (21). The FDA-approved anticancer drug set is available from the Developmental Therapeutics Program at https://dtp.cancer.gov/organization/dscb/obtaining/. […] The stock solutions were prepared in dimethyl sulfoxide (DMSO, Sigma-Aldrich, St. Louis, MO, cat. D2650), except for the platinum compounds which were prepared in saline (Quality Biological, Gaithersburg, MD, cat. 114-055-101), at 800-fold the tested concentration and stored at -70 degrees C prior to their use. All drugs and investigational agents were tested over a range starting from a high concentration at or near the clinical Cmax and decreasing in half-log increments. If the clinical Cmax for an agent had not been determined, the highest concentration tested was 10 microM, except for SN-38, which was tested at a high concentration of 1 microM.
Cell Culture. All cells were maintained in an incubator at 37 degrees C and 5% CO2 with 95% humidity. The PDC lines were cultured according to standard operating procedures established by the NCI PDMR (https://pdmr.cancer.gov). Table 3 of the manuscript, lists the cell lines along with the number of the three cell types plated to form the mct-spheroids and media for tumor cell growth. After thawing, all PDC lines, except 997537-175-T-J1-PDC and 415267-285-R-J2-PDC, were cultured in Matrigel-coated flasks prepared with a working solution of 1X Ham's F-12 nutrient mix, without supplementation (Thermo Fisher Scientific, cat. 11765054), 100 U/mL penicillin-streptomycin (Thermo Fisher Scientific, cat. 15140122), and 2.5% Matrigel (Corning Inc., Corning, NY, cat. 354248) for the first three passages. The two PDC lines 997537-175-T-J1-PDC and 415267-285-R-J2-PDC were cultured on uncoated flasks. The 857933-349-R-J2-PDC line was cultured in 6C/Colon 1B media containing advanced DMEM/F-12 (Thermo Fisher Scientific, cat. 12634028), 10 mM HEPES (Thermo Fisher Scientific, cat. 15630080), 1X GlutaMAX supplement (Thermo Fisher Scientific, cat. 35050061), 0.1 mg/mL primocin (InvivoGen, San Diego, CA, cat. ant-pm-2), 10% defined fetal bovine serum, heat inactivated (HyClone Laboratories Inc., Logan, UT, cat. SH30070.03HI), 50% L-WRN conditioned media (ATCC, cat. CRL-3276), 1.25 mM N-Acetyl-L-cysteine (Sigma-Aldrich, cat. A9165), 10 mM nicotinamide (Sigma-Aldrich, cat. N0636), 1X B-27 supplement (Thermo Fisher Scientific, cat. 17504044), 1X N-2 supplement (Thermo Fisher Scientific, cat. […]

[1] = curve of first compound, second compound 0.0316 µM
[2] = curve of first compound, second compound 0.1 µM
[3] = curve of first compound, second compound 0.316 µM
[4] = curve of first compound, second compound 1 µM
[5] = curve of first compound, second compound 3.16 µM
[6] = curve of first compound, second compound 10 µM
[7] = second compound 0.0316 µM, first compound 0.0316 µM
[8] = second compound 0.0316 µM, first compound 0.1 µM
[9] = second compound 0.0316 µM, first compound 0.316 µM
[10] = second compound 0.0316 µM, first compound 1 µM
[11] = second compound 0.0316 µM, first compound 3.16 µM
[12] = second compound 0.0316 µM, first compound 10 µM
[13] = second compound 0.1 µM, first compound 0.0316 µM
[14] = second compound 0.1 µM, first compound 0.1 µM
[15] = second compound 0.1 µM, first compound 0.316 µM
[16] = second compound 0.1 µM, first compound 1 µM
[17] = second compound 0.1 µM, first compound 3.16 µM
[18] = second compound 0.1 µM, first compound 10 µM
[19] = second compound 0.316 µM, first compound 0.0316 µM
[20] = second compound 0.316 µM, first compound 0.1 µM
[21] = second compound 0.316 µM, first compound 0.316 µM
[22] = second compound 0.316 µM, first compound 1 µM
[23] = second compound 0.316 µM, first compound 3.16 µM
[24] = second compound 0.316 µM, first compound 10 µM
[25] = second compound 1 µM, first compound 0.0316 µM
[26] = second compound 1 µM, first compound 0.1 µM
[27] = second compound 1 µM, first compound 0.316 µM
[28] = second compound 1 µM, first compound 1 µM
[29] = second compound 1 µM, first compound 3.16 µM
[30] = second compound 1 µM, first compound 10 µM
[31] = second compound 3.16 µM, first compound 0.0316 µM
[32] = second compound 3.16 µM, first compound 0.1 µM
[33] = second compound 3.16 µM, first compound 0.316 µM
[34] = second compound 3.16 µM, first compound 1 µM
[35] = second compound 3.16 µM, first compound 3.16 µM
[36] = second compound 3.16 µM, first compound 10 µM
[37] = second compound 10 µM, first compound 0.0316 µM
[38] = second compound 10 µM, first compound 0.1 µM
[39] = second compound 10 µM, first compound 0.316 µM
[40] = second compound 10 µM, first compound 1 µM
[41] = second compound 10 µM, first compound 3.16 µM
[42] = second compound 10 µM, first compound 10 µM
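Also: spheroids exposed to compounds for seven days.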
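For viability, T/C in this document: 100% = DMSO vehicle control viability.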

- IC50 (compound alone, run of 10/31/2023): > 10 µM
- IC50 (compound alone, run of 11/06/2023): > 10 µM
Structure (SMILES): Cc1cccc(N(C)C(=O)C2C(O)CCN2c2nc(C)cc(C(F)(F)F)c2C#N)c1 (stereo not given)
- viability, T/C (compound 0.1 µM): 102% [middle of 13 runs]
- viability, T/C (compound 0.316 µM): 100% [middle of 13 runs]
- viability, T/C (compound 1 µM): 105% [middle of 13 runs]
- viability, T/C (compound 3.16 µM): 101% [middle of 13 runs]
- viability, T/C (compound 10 µM): 97.8% [middle of 13 runs]

Structure (SMILES): O=C(c1cc(Cc2n[nH]c(=O)c3ccccc23)ccc1F)N1CCN(C(=O)C2CC2)CC1 + Nc1ccc(C#CCN(C(=O)Cc2ncc(C(F)(F)F)cc2C(F)(F)F)c2ccc(F)cc2)nn1
- IC50 [1]: > 10 µM
- IC50 [2]: > 10 µM
- IC50 [3]: > 10 µM
- IC50 [4]: > 10 µM
- IC50 [5]: > 10 µM
- IC50 [6]: > 10 µM
- viability, T/C [7]: 99.7%
- viability, T/C [8]: 116%
- viability, T/C [9]: 104%
- viability, T/C [10]: 98.3%
- viability, T/C [11]: 93.6%
- viability, T/C [12]: 72.2%
- viability, T/C [13]: 111%
- viability, T/C [14]: 100%
- viability, T/C [15]: 107%
- viability, T/C [16]: 90.7%
- viability, T/C [17]: 101%
- viability, T/C [18]: 75%
- viability, T/C [19]: 116%
- viability, T/C [20]: 88.5%
- viability, T/C [21]: 89.9%
- viability, T/C [22]: 106%
- viability, T/C [23]: 80.9%
- viability, T/C [24]: 81.6%
- viability, T/C [25]: 117%
- viability, T/C [26]: 90.3%
- viability, T/C [27]: 94.3%
- viability, T/C [28]: 92.5%
- viability, T/C [29]: 96%
- viability, T/C [30]: 69.1%
- viability, T/C [31]: 101%
- viability, T/C [32]: 104%
- viability, T/C [33]: 97%
- viability, T/C [34]: 102%
- viability, T/C [35]: 91.2%
- viability, T/C [36]: 77.1%
- viability, T/C [37]: 95.3%
- viability, T/C [38]: 95.3%
- viability, T/C [39]: 110%
- viability, T/C [40]: 89.8%
- viability, T/C [41]: 88.2%
- viability, T/C [42]: 73%

Structure (SMILES): COc1cc2cc(C(=O)CCC(=O)O)sc2cc1OC
- viability, T/C (compound 0.0316 µM): 100% and 119% and 108%
- viability, T/C (compound 0.1 µM): 84.6% and 105% (2×)
- viability, T/C (compound 0.316 µM): 108% and 88.4% and 95%
- viability, T/C (compound 1 µM): 93% and 103% and 104%
- viability, T/C (compound 3.16 µM): 100% and 109% and 108%
- viability, T/C (compound 10 µM): 111% and 110% and 95.3%
- IC50 (curve of compound): > 10 µM

Structure (SMILES): CC1COCCN1c1cc(C2(S(C)(=N)=O)CC2)nc(-c2ccnc3[nH]ccc23)n1 (stereo not given)
- viability, T/C (compound 0.0316 µM): 100% and 105% and 99.8%
- viability, T/C (compound 0.1 µM): 95.1% and 99.5% and 101%
- viability, T/C (compound 0.316 µM): 89.3% and 114% and 98%
- viability, T/C (compound 1 µM): 94.8% and 91.6% and 89.8%
- viability, T/C (compound 3.16 µM): 68.1% and 61.6% and 60.5%
- viability, T/C (compound 10 µM): 23.7% and 27.7% and 21.9%
- IC50 (curve of compound): 5.05 µM and 4.62 µM and 4.33 µM

Structure (SMILES): COc1cccc2c1C(=O)c1c(O)c3c(c(O)c1C2=O)CC(O)(C(=O)CO)CC3OC1CC(N)C(O)C(C)O1 (stereo not given) + Cc1cccc(N(C)C(=O)C2C(O)CCN2c2nc(C)cc(C(F)(F)F)c2C#N)c1
- IC50 [1]: 0.102 µM
- IC50 [2]: 0.146 µM
- IC50 [3]: 0.117 µM
- IC50 [4]: 0.117 µM
- IC50 [5]: 0.0979 µM
- IC50 [6]: 0.0754 µM
- viability, T/C [7]: 83.8%
- viability, T/C [8]: 48%
- viability, T/C [9]: 31.3%
- viability, T/C [10]: 9.29%
- viability, T/C [11]: 0.34%
- viability, T/C [12]: 0.84%
- viability, T/C [13]: 75.1%
- viability, T/C [14]: 56.8%
- viability, T/C [15]: 34.5%
- viability, T/C [16]: 8.42%
- viability, T/C [17]: 0.28%
- viability, T/C [18]: 0.45%
- viability, T/C [19]: 81%
- viability, T/C [20]: 48.9%
- viability, T/C [21]: 36.7%
- viability, T/C [22]: 10%
- viability, T/C [23]: 0.19%
- viability, T/C [24]: 0.47%
- viability, T/C [25]: 74%
- viability, T/C [26]: 51%
- viability, T/C [27]: 32.6%
- viability, T/C [28]: 10.9%
- viability, T/C [29]: 0.17%
- viability, T/C [30]: 0.44%
- viability, T/C [31]: 69.8%
- viability, T/C [32]: 47.2%
- viability, T/C [33]: 29.8%
- viability, T/C [34]: 6.51%
- viability, T/C [35]: 0.32%
- viability, T/C [36]: 0.65%
- viability, T/C [37]: 74.8%
- viability, T/C [38]: 39.5%
- viability, T/C [39]: 26.4%
- viability, T/C [40]: 3.83%
- viability, T/C [41]: 0.3%
- viability, T/C [42]: 0.64%
